Some test systems named below: CAKI-1 renal; KM12 colon; LOX IMVI melanoma; MALME-3M melanoma; MDA-MB-435; MOLT-4 leukemia; NCI/ADR-RES ovarian; RXF 393 renal; SF-268 CNS; TK-10 renal.
What all share (experiment): inhibition of tumour cell growth, NCI panel, 48 h

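96-well plates; 48 h exposure; 5 concentrations. Endpoints by linear interpolation between flanking doses. Not reached: highest tested concentration assigned. Here, GI50 denotes the concentration required for 50% inhibition of growth. TGI marks complete inhibition of growth.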

Take `Cc1cccc(-c2[nH]ncc2-c2ccc3ncccc3n2)n1`: the GI50 was more than 19 µM in the experiment with CAKI-1 renal; 9.51 µM in the experiment with KM12 colon; 7.56 µM in the experiment on LOX IMVI melanoma; more than 25 µM in the experiment with MALME-3M melanoma; 15.4 µM with MDA-MB-435; 14.2 µM in the experiment with MOLT-4 leukemia. Moreover, the GI50 was 13.7 µM with NCI/ADR-RES ovarian, 5.87 µM in the experiment on RXF 393 renal, 10.5 µM with SF-268 CNS and 13 µM in the experiment with TK-10 renal. In addition, the TGI in the experiment on CAKI-1 renal, in the experiment with KM12 colon, with LOX IMVI melanoma, in the experiment on MALME-3M melanoma, in the experiment with MDA-MB-435 and in the experiment with MOLT-4 leukemia was more than 25 µM each time. For the same molecule, the TGI in the experiment on NCI/ADR-RES ovarian was more than 25 µM; in the experiment with RXF 393 renal, 12.7 µM; in the experiment with SF-268 CNS, more than 25 µM; with TK-10 renal it was more than 25 µM.

Take `CN(C)c1ccc(/C=C/c2ccnc3c(O)cccc23)cc1`: the GI50 is 0.401 µM in the experiment with CAKI-1 renal; 0.399 µM in the experiment with KM12 colon; 0.313 µM with LOX IMVI melanoma; 0.847 µM in the experiment with MALME-3M melanoma; 0.455 µM in the experiment on MDA-MB-435; 0.357 µM with MOLT-4 leukemia. In addition, the GI50 in the experiment on NCI/ADR-RES ovarian was 0.312 µM; with RXF 393 renal, 0.813 µM; with SF-268 CNS it was 0.463 µM; in the experiment on TK-10 renal it was 1.68 µM. In addition, the TGI is more than 74.4 µM in the experiment with CAKI-1 renal; more than 100 µM in the experiment on KM12 colon; more than 100 µM in the experiment on LOX IMVI melanoma; 9.43 µM in the experiment with MALME-3M melanoma; more than 100 µM with MDA-MB-435; more than 100 µM with MOLT-4 leukemia. The TGI is 15.1 µM in the experiment on RXF 393 renal, more than 100 µM with SF-268 CNS and more than 100 µM with TK-10 renal.

Turning to `CC(C)(C)N1CCC1CN` (centres undefined), the GI50 in the experiment with CAKI-1 renal, in the experiment on KM12 colon, in the experiment on LOX IMVI melanoma, with MALME-3M melanoma, with MDA-MB-435 and in the experiment on MOLT-4 leukemia was more than 100 µM in each case. For the same molecule, the GI50 in the experiment with NCI/ADR-RES ovarian, in the experiment with RXF 393 renal, in the experiment with SF-268 CNS and with TK-10 renal was more than 100 µM in each case. Moreover, the TGI in the experiment on CAKI-1 renal, in the experiment on KM12 colon, in the experiment on LOX IMVI melanoma, with MALME-3M melanoma, in the experiment on MDA-MB-435 and in the experiment with MOLT-4 leukemia was more than 100 µM each time. The TGI in the experiment on NCI/ADR-RES ovarian, in the experiment with RXF 393 renal, in the experiment on SF-268 CNS and in the experiment with TK-10 renal was more than 100 µM in each case.

For `NS(=O)(=O)OCC1OC(n2cnc3cncnc32)C(O)C1O` (centres undefined), the GI50 in the experiment with CAKI-1 renal was 0.0181 µM; in the experiment with KM12 colon, 0.0179 µM; with LOX IMVI melanoma it was 0.0228 µM; in the experiment with MALME-3M melanoma, 0.0469 µM; in the experiment with MDA-MB-435 it was 0.0284 µM; with MOLT-4 leukemia it was 0.0209 µM. The GI50 was 0.0103 µM in the experiment on NCI/ADR-RES ovarian, 0.0235 µM with RXF 393 renal, 0.0267 µM in the experiment with SF-268 CNS and 0.0214 µM in the experiment on TK-10 renal. Besides, the TGI came to 0.0463 µM in the experiment on CAKI-1 renal; 0.0522 µM in the experiment on KM12 colon; 0.0548 µM in the experiment on LOX IMVI melanoma; 0.272 µM with MALME-3M melanoma; 0.0845 µM in the experiment on MDA-MB-435; 2.42 µM in the experiment with MOLT-4 leukemia. Moreover, the TGI stood at 0.0503 µM in the experiment with NCI/ADR-RES ovarian, 0.065 µM in the experiment with RXF 393 renal, 0.279 µM in the experiment on SF-268 CNS and 0.0713 µM with TK-10 renal.

With `O=C1CC[C@H](N2C(=O)c3cccc4c(Cc5ccc(CN6CCOCC6)cc5)ccc2c34)C(=O)N1`, the GI50 in the experiment with CAKI-1 renal is 62.1 µM; in the experiment on KM12 colon, 79 µM; in the experiment with LOX IMVI melanoma, 26.1 µM; in the experiment on MALME-3M melanoma, 30 µM; in the experiment with MDA-MB-435 it was 36.9 µM; with MOLT-4 leukemia, 27.6 µM. Moreover, the GI50 in the experiment with NCI/ADR-RES ovarian is 42 µM; in the experiment with RXF 393 renal it was 2.45 µM; in the experiment with SF-268 CNS, more than 100 µM; in the experiment with TK-10 renal, more than 100 µM. For the same molecule, the TGI in the experiment with CAKI-1 renal, with KM12 colon, with LOX IMVI melanoma, with MALME-3M melanoma, with MDA-MB-435 and in the experiment on MOLT-4 leukemia was more than 100 µM each time. The TGI in the experiment on NCI/ADR-RES ovarian, with RXF 393 renal, in the experiment on SF-268 CNS and in the experiment with TK-10 renal was more than 100 µM throughout.

Consider `COc1cc2nccc(Oc3ccc(NC(=O)NC4CC4)c(Cl)c3)c2cc1C(N)=O`, for which the GI50 in the experiment on CAKI-1 renal is 23.9 µM; in the experiment with KM12 colon, 5.5 µM; with LOX IMVI melanoma, 70.2 µM; in the experiment with MALME-3M melanoma, 40.7 µM; with MDA-MB-435, more than 100 µM; in the experiment with MOLT-4 leukemia, 16.7 µM. Also, the GI50 with NCI/ADR-RES ovarian was 35.2 µM; with RXF 393 renal it was 12.4 µM; with SF-268 CNS it was 10.3 µM; in the experiment on TK-10 renal it was 14.5 µM. Besides, the TGI in the experiment with CAKI-1 renal is more than 64.2 µM; in the experiment on KM12 colon, more than 100 µM; in the experiment on LOX IMVI melanoma, more than 100 µM; in the experiment with MALME-3M melanoma it was more than 100 µM; in the experiment with MDA-MB-435 it was more than 100 µM; in the experiment on MOLT-4 leukemia, more than 100 µM. In addition, the TGI in the experiment with NCI/ADR-RES ovarian was more than 100 µM; in the experiment on RXF 393 renal, 43.4 µM; with SF-268 CNS, 48 µM; with TK-10 renal, more than 78.5 µM.

Turning to `Cc1ccc(NC(=O)c2ccc(CN3CCN(C)CC3)cc2)cc1Nc1nccc(-c2cccnc2)n1`, the GI50 in the experiment on CAKI-1 renal was 30.3 µM; in the experiment with KM12 colon, 18.8 µM; with LOX IMVI melanoma, 13.1 µM; in the experiment on MALME-3M melanoma, 16.5 µM; in the experiment on MDA-MB-435 it was 17.4 µM; in the experiment on MOLT-4 leukemia, 5.11 µM. Also, the GI50 in the experiment with NCI/ADR-RES ovarian is 23.8 µM; in the experiment on RXF 393 renal, 14.2 µM; in the experiment with SF-268 CNS, 25.6 µM; with TK-10 renal, 28.1 µM. Moreover, the TGI in the experiment with CAKI-1 renal is 67 µM; in the experiment on KM12 colon, 41.3 µM; in the experiment on LOX IMVI melanoma it was 34.8 µM; in the experiment with MALME-3M melanoma, 32 µM; with MDA-MB-435, 36 µM; in the experiment on MOLT-4 leukemia it was 41.4 µM. The TGI in the experiment with NCI/ADR-RES ovarian came out at 68.3 µM; in the experiment on RXF 393 renal, 33.3 µM; in the experiment on SF-268 CNS it was 71 µM; in the experiment with TK-10 renal, 70.6 µM.

On to `CC[C@H]1CN2CCc3cc(OC)c(OC)cc3C2C[C@@H]1CC1NCCc2cc(OC)c(OC)cc21` (some centres undefined), for which the TGI in the experiment on CAKI-1 renal stood at 0.292 µM; in the experiment with KM12 colon it was 0.0986 µM; with LOX IMVI melanoma, 0.0224 µM; with MALME-3M melanoma it was 0.222 µM; in the experiment on MDA-MB-435, 0.112 µM; with MOLT-4 leukemia, 3.75 µM. Also, the TGI was 1.19 µM in the experiment with NCI/ADR-RES ovarian, 0.131 µM with RXF 393 renal and 0.572 µM with TK-10 renal. Also, the GI50 in the experiment with MDA-MB-435 is 0.0161 µM.

The values are drawn from PubChem BioAssay (NCI).
